Source: patent publication US20040097594A1 (priority 1998, published 2004)
Read-outs that look alike come from different tables or passages of the source.

Assays:
HIV-1 protease = HIV-1 protease (Human immunodeficiency virus type 1 group M subtype B, UniProt P04585); test: biochemical
HIV-1 (strain IIIB) = test: microbe, parasite or virus in culture; assay type: cell-based; conditions: lower line of each compound's entry, read-out: IC50 (MT-4 cells)
[1] = HIV-1 protease, upper line of each compound's entry, read-out: Ki (enzyme)
[2] = Human immunodeficiency virus 1, 120 h, MT4 cells infected with HIV-1 strain IIIB, 5 days
[3] = Human immunodeficiency virus 1, IIIB, MT4, 120 h, […]

| SMILES | Ki (HIV-1 protease; [1]) | IC50 (HIV-1 (strain IIIB); [2]) | IC50 (HIV-1 (strain IIIB); [3]) | Ki (HIV-1 protease) |
| --- | --- | --- | --- | --- |
| Nc1n[nH]c2ccc(S(=O)(=O)N(C[C@@H](O)[C@H](Cc3ccccc3)NC(=O)O[C@H]3CO[C@H]4OCC[C@H]43)OC3CCCC3)cc12 [Compound 108, (3R,3aS,6aR)Hexahydrofuro[2,3-b]furan-3-yl N-(1S,2R)-1-benzyl-3-[(cyclopentyloxy) (3-aminoindazole-5-ylsulfonyl)amino]-2-hydroxypropylcarbamate] | 10 to 100 nM | > 500 nM | – | – |
| CC(C)Oc1cccc(S(=O)(=O)N(C[C@@H](O)[C@H](Cc2ccccc2)NC(=O)OC2CO[C@H]3OCC[C@@H]23)OC2CCCC2)c1 (stereo partly drawn) [Compound 142, (3R,3aS,6aR)hexahydrofuro[2,3-b]furan-3-yl N-((1S,2R)-1-benzyl-3-(cyclopentyloxy)[(3-isopropoxyphenyl)sulfonyl]amino-2-hydroxypropyl)carbamate] | < 1 nM | – | 100 to 500 nM | – |
| COc1ccc(S(=O)(=O)N(C[C@@H](O)[C@H](Cc2ccccc2)NC(=O)OC(C)(C)C)OCc2ccccc2)cc1 [Compound 21, tert-butyl N-((1S,2R)-1-benzyl-3-(benzyloxy)[(4-methoxyphenyl)sulfonyl]amino-2-hydroxypropyl)carbamate] | 10 to 100 nM | > 1000 nM | – | – |
| O=C(N[C@@H](Cc1ccccc1)[C@H](O)CC(OC1CCCC1)S(=O)(=O)c1ccc2nccnc2c1)OC1CCOC1 (stereo in doubt) [Compound 110, (3S)tetrahydro-3-furanyl N-[(1S,2R)-1-benzyl-4-(cyclopentyloxy)-2-hydroxy-4-(6-quinoxalinylsulfonyl)butyl]carbamate] | < 1 nM | 100 to 500 nM | – | – |
| CC(C)ON(C[C@@H](O)[C@H](Cc1ccccc1)NC(=O)OC(C)(C)C)S(=O)(=O)c1cccc(N)c1 [Compound 1] | 10 to 100 nM | > 1000 nM | – | – |
| CCOC(=O)CNC(=O)NCCNc1cccc(S(=O)(=O)N(CC(O)C(Cc2ccccc2)NC(=O)OC2COC3OCCC23)OC2CCCC2)c1 (mixture of isomers) [Compound 113, Ethyl 2-[([2-(3-[[(2R,3S)-3-([(3R,3aS,6aR)hexahydrofuro[2,3-b]furan-3-yloxy]carbonylamino)-2-hydroxy-4-phenylbutyl](cyclopentyloxy)amino]sulfonylanilino)ethyl]aminocarbonyl)amino]acetate and ethyl 2-[([2-(3-[[(2R,3S)-3-([(3S,3aR,6aS)hexahydrofuro[2,3-b]furan-3-yloxy]carbonylamino)-2-hydroxy-4 phenylbutyl](cyclopentyloxy)amino]sulfonylanilino)ethyl]aminocarbonyl)amino]acetate] | < 1 nM | ≤ 100 nM | – | – |
| O=C(N[C@@H](Cc1ccccc1)[C@H](O)CN(OC1CCCC1)S(=O)(=O)c1ccc2nccnc2c1)O[C@H]1CO[C@H]2OCC[C@H]21 [Compound 90] | < 1 nM | ≤ 100 nM | – | – |
| COc1ccc(S(=O)(=O)N(C[C@@H](O)[C@H](Cc2ccccc2)NC(=O)OC2COCOC2)OC2CCOCC2)cc1 [Compound 74, 1,3-dioxan-5-yl N-(1S,2R)-1-benzyl-2-hydroxy-3-[[(4-methoxyphenyl)sulfonyl](tetrahydro-2H-pyran-4-yloxy)amino]propylcarbamate] | < 1 nM | ≤ 100 nM | – | – |
| O=C(N[C@@H](Cc1ccccc1)[C@H](O)CN(OC1CCOCC1)S(=O)(=O)c1ccc(O)cc1)O[C@H]1CO[C@H]2OCC[C@H]21 [Compound 149, (3R,3aS,6aR)hexahydrofuro[2,3-b]furan-3-yl 1-benzyl-2-hydroxy-3-[[(4-hydroxyphenyl)sulfonyl](tetrahydro-2H-pyran-4-yloxy)amino]propylcarbamate] | < 1 nM | ≤ 100 nM | – | – |
| COc1ccc(S(=O)(=O)N(C[C@@H](O)[C@H](Cc2ccccc2)NC(=O)OC(C)(C)C)OCC(C)C)cc1 [Compound 22, tert-butyl N-((1S,2R)-1-benzyl-2-hydroxy-3-isobutoxy[(4-methoxyphenyl)sulfonyl]aminopropyl)carbamate] | – | > 1000 nM | – | 1 to 10 nM |
| COc1ccc(S(=O)(=O)N(C[C@@H](O)[C@H](Cc2ccccc2)NC(=O)[C@H](CC(N)=O)NC(=O)c2ccc3ccccc3n2)OC2CCCCC2)cc1 [Compound 66] | – | – | ≤ 100 nM | < 1 nM |
| O=C(N[C@@H](Cc1ccccc1)[C@H](O)CN(OC1CCCC1)S(=O)(=O)c1ccc2c(c1)OCO2)OC1CO[C@H]2OCC[C@@H]12 (stereo partly drawn) [Compound 138, (3R,3aS,6aR)hexahydrofuro[2,3-b]furan-3-yl N-(1S,2R)-3-[(1,3-benzodioxol-5-ylsulfonyl)(cyclopentyloxy)amino)-1-benzyl-2-hydroxypropylcarbamate] | – | ≤ 100 nM | – | < 1 nM |
| CCC(CC)ON(C[C@@H](O)[C@H](Cc1ccccc1)NC(=O)O[C@H]1CO[C@H]2OCC[C@H]21)S(=O)(=O)c1cccc(N)c1 [Example 164, (3R,3aS,6aR)hexahydrofuro[2,3-b]furan-3-yl(1S,2R)-3-[[(3-aminophenyl)sulfonyl](1-ethylpropoxy)amino]-1-benzyl-2-hydroxypropylcarbamate] | < 1 nM | ≤ 100 nM | – | – |
| COC(=O)NCCNc1cccc(S(=O)(=O)N(CC(O)C(Cc2ccccc2)NC(=O)OC2COC3OCCC23)OC2CCCC2)c1 (mixture of isomers) [Compound 124, (3R,3aS,6aR)hexahydrofuro[2,3-b]furan-3-yl N-[(1S,2R)-1-benzyl-3-((cyclopentyloxy)[3-(2-[(methoxycarbonyl)amino]ethylamino)phenyl]sulfonylamino)-2-hydroxypropyl]carbamate and (3S,3aR,6aS)hexahydrofuro[2,3-b]furan-3-yl N-[(1S,2R)-1-benzyl-3-((cyclopentyloxy)[3-(2-[(methoxycarbonyl)amino]ethylamino)phenyl]sulfonylamino)-2-hydroxypropyl)carbamate] | < 1 nM | ≤ 100 nM | – | – |
| CC(C)ON(C[C@@H](O)[C@H](Cc1ccccc1)NC(=O)OC(C)(C)C)S(=O)(=O)c1ccc(N)c(N)c1 [Compound 2] | 10 to 100 nM | > 1000 nM | – | – |
| CC(C)(C)OC(=O)N[C@@H](Cc1ccccc1)[C@H](O)CN(OC1CCCC1)S(=O)(=O)c1ccc2[nH]c(=O)[nH]c2c1 [Compound 131, tert-Butyl-N-((1S,2R)-1-benzyl-3-(cyclopentyloxy)(2-oxybenzimidazol-5-ylsulfonyl)amino-2-hydroxypropyl)carbamate] | < 1 nM | ≤ 100 nM | – | – |
| CNc1cccc(S(=O)(=O)N(C[C@@H](OP(=O)(O)O)[C@H](Cc2ccccc2)NC(=O)O[C@H]2CO[C@H]3OCC[C@H]32)OC2CCCC2)c1 [Compound 119, Phosphate ester of (3R,3aS,6aR)hexahydrofuro[2,3-b]furan-3-yl N-(1S,2R)-3-[[(3-N-methylaminophenyl)sulfonyl](cyclopentyloxy)amino]-1-benzyl-2-hydroxypropylcarbamate] | > 100 nM | > 1000 nM | – | – |
| COc1ccc(S(=O)(=O)N(C[C@@H](O)[C@H](Cc2ccccc2)NC(=O)c2cccc(O)c2C)OC2CCOCC2)cc1 [Compound 75, N-(1S,2R)-1-benzyl-2-hydroxy-3-[[(4-methoxyphenyl)sulfonyl](tetrahydro-2H-pyran-4-yloxy)amino]propyl-3-hydroxy-2-methylbenzamide] | < 1 nM | > 500 nM | – | – |
| COc1ccc(S(=O)(=O)N(C[C@@H](O)[C@H](Cc2ccccc2)NC(=O)OC2COCOC2)OC2CCCC2)cc1 [Compound 48, 1,3-dioxan-5-yl N-((1S,2R)-1-benzyl-3-(cyclopentyloxy)[(4-methoxyphenyl)sulfonyl]amino-2-hydroxypropyl)carbamate] | < 1 nM | 100 to 500 nM | – | – |
| CC(C)ON(CC(O)C(Cc1ccccc1)NC(=O)OC1COC2OCCC12)S(=O)(=O)c1ccc2nc(NS(C)(=O)=O)n(Cc3ccccc3)c2c1 (centres unmarked) [Compound 118] | > 100 nM | 500 to 1000 nM | – | – |
| COc1ccc(S(=O)(=O)N(C[C@@H](O)[C@H](Cc2ccccc2)NC(=O)[C@H](CC(N)=O)NC(=O)c2ccc3ccccc3n2)OC2CCOCC2)cc1 [Compound 76, (2S)-N-(1S,2R)-1-benzyl-2-hydroxy-3-[[(4-methoxyphenyl)sulfonyl](tetrahydro-2H-pyran-4-yloxy)amino]propyl-2-[(2-quinolinylcarbonyl)amino]butanediamide] | < 1 nM | – | 100 to 500 nM | – |
| Nc1cccc(S(=O)(=O)N(C[C@@H](O)[C@H](Cc2ccccc2)NC(=O)O[C@H]2CO[C@H]3OCC[C@H]32)OC2CCCCC2)c1 [Compound 154, (3R,3aS,6aR)hexahydrofuro[2,3-b]furan-3-yl(1S,2R)-3-[[(3-aminophenyl)sulfonyl](cyclohexyloxy)amino]-1-benzyl-2-hydroxypropylcarbamate] | < 1 nM | ≤ 100 nM | – | – |
| O=C(N[C@@H](Cc1ccccc1)[C@H](O)CN(OC1CCCCC1)S(=O)(=O)c1ccc2c(c1)OCO2)O[C@H]1CO[C@H]2OCC[C@H]21 [Compound 155, (3R,3aS,6aR)hexahydrofuro[2,3-b]furan-3-yl(1S,2R)-3-[(1,3-benzodioxol-5-ylsulfonyl)(cyclohexyloxy)amino]-1-benzyl-2-hydroxypropylcarbamate] | < 1 nM | ≤ 100 nM | – | – |
| CCC(C)ON(C[C@@H](O)[C@H](Cc1ccccc1)NC(=O)OC(C)(C)C)S(=O)(=O)c1ccc(OC)cc1 (stereo partly drawn) [Compound 15, tert-butyl N-((1S,2R)-1-benzyl-3-sec-butoxy[(4-methoxyphenyl)sulfonyl]amino-2-hydroxypropyl)carbamate] | 1 to 10 nM | > 1000 nM | – | – |
| COc1ccc(S(=O)(=O)N(C[C@@H](O)[C@H](Cc2ccccc2)NC(=O)OC(C)(C)C)OCC2CCCCO2)cc1 (stereo partly drawn) [Compound 19, tert-butyl N-(1S,2R)-1-benzyl-2-hydroxy-3-[[(4-methoxyphenyl)sulfonyl](tetrahydro-2H-pyran-2-ylmethoxy)amino]propylcarbamate] | 10 to 100 nM | > 1000 nM | – | – |
